{"source": "the kinase profiling compilation of Christmann-Franck et al. (2016)", "key": {"PIK3C2A (human)": {"target": "PIK3C2A (human) (UniProt O00443)"}, "PIK3C3 (human)": {"target": "PIK3C3 (human) (UniProt Q8NEB9)"}, "PIK3C2B (human)": {"target": "PIK3C2B (human) (UniProt O00750)"}, "PI4KB (human)": {"target": "PI4KB (human) (UniProt Q9UBF8)"}, "PI4KA (human)": {"target": "PI4KA (human) (UniProt P42356)"}, "PDPK1 (human)": {"target": "PDPK1 (human) (UniProt O15530)", "sequence (O15530 whole entry, looked up)": "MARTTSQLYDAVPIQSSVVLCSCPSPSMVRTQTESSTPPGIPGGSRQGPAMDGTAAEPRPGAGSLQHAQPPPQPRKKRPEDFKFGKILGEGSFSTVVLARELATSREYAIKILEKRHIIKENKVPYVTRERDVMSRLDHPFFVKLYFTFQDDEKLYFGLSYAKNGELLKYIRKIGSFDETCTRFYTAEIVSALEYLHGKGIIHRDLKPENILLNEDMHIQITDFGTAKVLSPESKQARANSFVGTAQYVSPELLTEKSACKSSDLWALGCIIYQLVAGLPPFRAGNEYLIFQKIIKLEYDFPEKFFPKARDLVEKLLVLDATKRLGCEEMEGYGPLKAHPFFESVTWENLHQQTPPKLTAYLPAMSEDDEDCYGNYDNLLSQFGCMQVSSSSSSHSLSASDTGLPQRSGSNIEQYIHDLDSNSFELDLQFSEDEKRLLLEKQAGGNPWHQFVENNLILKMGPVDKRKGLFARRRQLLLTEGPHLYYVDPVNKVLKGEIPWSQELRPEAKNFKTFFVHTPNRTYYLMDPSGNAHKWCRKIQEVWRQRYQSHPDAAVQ"}, "CAMKK2 (human)": {"target": "CAMKK2 (human) (UniProt Q96RR4)", "sequence (Q96RR4 whole entry, looked up)": "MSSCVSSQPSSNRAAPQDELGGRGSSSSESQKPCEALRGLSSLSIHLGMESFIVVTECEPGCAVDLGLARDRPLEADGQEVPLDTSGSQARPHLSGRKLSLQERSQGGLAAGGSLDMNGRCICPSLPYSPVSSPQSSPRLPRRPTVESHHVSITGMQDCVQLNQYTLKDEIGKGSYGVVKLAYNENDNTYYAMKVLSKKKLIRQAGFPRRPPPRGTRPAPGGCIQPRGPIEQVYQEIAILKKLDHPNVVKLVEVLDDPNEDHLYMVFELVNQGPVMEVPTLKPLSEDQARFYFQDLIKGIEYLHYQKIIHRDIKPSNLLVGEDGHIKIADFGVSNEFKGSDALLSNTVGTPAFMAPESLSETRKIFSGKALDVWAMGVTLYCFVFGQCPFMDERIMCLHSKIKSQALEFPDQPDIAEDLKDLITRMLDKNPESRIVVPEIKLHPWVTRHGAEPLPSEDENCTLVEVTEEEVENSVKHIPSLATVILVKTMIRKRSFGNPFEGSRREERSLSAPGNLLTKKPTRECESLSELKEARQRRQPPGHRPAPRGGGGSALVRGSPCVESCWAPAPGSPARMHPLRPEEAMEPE"}, "MAPKAPK2 (human)": {"target": "MAPKAPK2 (human) (UniProt P49137)"}, "MAPK9 (human)": {"target": "MAPK9 (human) (UniProt P45984)", "sequence (P45984 whole entry, looked up)": "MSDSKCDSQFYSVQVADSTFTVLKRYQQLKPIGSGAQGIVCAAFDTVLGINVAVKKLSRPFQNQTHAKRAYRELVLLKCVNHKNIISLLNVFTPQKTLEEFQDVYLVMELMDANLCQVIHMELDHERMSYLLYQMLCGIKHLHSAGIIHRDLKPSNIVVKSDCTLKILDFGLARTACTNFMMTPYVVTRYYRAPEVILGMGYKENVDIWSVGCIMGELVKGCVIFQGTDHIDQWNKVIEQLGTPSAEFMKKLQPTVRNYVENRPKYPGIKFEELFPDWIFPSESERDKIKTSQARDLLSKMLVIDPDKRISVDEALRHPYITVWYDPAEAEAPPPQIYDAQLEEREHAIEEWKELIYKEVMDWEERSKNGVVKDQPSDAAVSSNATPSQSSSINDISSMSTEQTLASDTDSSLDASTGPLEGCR"}, "PIM1 (human)": {"target": "PIM1 (human) (UniProt P11309)"}, "PRKCZ (human)": {"target": "PRKCZ (human) (UniProt Q05513)"}, "DYRK1A (human)": {"target": "DYRK1A (human) (UniProt Q13627)"}, "AURKB (human)": {"target": "AURKB (human) (UniProt Q96GD4)"}, "CSK (human)": {"target": "CSK (human) (UniProt P41240)"}, "RPS6KA5 KD1 KD2 (human)": {"target": "RPS6KA5 KD1 KD2 (human) (UniProt O75582)"}, "GSK3B (human)": {"target": "GSK3B (human) (UniProt P49841)", "sequence (P49841 whole entry, looked up)": "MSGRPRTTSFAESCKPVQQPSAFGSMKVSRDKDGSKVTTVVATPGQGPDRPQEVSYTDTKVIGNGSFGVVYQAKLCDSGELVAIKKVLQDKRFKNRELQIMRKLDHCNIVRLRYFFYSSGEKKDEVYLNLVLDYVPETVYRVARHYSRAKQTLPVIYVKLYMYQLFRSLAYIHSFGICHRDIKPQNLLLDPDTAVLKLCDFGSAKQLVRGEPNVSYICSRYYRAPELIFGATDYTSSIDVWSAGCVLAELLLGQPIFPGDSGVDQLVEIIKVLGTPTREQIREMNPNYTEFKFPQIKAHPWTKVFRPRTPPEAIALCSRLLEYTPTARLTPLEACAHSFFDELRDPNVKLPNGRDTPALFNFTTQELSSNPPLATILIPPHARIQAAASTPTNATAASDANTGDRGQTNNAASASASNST"}, "NEK6 (human)": {"target": "NEK6 (human) (UniProt Q9HC98)"}, "STK3 (human)": {"target": "STK3 (human) (UniProt Q13188)"}, "EPHA2 (human)": {"target": "EPHA2 (human) (UniProt P29317)", "sequence (P29317 whole entry, looked up)": "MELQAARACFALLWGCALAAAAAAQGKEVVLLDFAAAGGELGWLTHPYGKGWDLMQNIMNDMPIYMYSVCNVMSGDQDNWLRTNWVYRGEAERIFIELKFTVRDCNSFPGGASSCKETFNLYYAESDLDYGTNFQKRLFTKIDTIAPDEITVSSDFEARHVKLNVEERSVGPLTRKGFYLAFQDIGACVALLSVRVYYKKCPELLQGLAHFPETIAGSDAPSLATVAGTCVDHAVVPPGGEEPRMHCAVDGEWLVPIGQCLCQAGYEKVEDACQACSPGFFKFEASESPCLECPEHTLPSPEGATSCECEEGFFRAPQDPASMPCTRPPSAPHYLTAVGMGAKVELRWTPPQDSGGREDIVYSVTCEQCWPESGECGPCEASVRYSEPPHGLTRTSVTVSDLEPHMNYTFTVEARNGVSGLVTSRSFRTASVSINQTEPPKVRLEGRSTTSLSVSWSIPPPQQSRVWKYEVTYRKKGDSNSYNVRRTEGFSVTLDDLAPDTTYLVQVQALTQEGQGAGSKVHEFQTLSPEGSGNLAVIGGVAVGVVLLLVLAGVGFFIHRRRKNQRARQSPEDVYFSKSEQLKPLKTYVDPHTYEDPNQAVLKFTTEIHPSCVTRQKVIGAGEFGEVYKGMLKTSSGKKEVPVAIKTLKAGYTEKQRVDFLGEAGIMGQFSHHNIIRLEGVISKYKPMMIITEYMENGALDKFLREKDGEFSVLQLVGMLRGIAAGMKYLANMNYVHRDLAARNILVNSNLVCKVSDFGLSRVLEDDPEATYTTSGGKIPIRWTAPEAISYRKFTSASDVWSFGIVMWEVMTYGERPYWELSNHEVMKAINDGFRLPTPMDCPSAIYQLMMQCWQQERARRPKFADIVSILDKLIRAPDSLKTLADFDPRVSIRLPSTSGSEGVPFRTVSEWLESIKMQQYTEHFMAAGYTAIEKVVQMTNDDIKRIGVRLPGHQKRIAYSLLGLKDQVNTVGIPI"}, "MKNK2 (human)": {"target": "MKNK2 (human) (UniProt Q9HBH9)", "sequence (Q9HBH9 whole entry, looked up)": "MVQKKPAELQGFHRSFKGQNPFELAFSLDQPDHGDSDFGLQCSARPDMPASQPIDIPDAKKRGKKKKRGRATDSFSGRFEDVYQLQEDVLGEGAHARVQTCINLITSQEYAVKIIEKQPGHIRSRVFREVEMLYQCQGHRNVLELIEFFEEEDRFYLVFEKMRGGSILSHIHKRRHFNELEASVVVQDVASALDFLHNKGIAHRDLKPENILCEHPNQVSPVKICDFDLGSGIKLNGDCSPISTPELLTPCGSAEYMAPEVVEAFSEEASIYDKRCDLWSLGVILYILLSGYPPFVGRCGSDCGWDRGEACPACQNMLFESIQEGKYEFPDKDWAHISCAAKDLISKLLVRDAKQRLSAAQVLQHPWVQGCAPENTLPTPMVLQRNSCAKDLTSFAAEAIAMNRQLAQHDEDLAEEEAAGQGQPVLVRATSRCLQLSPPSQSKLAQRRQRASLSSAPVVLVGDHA"}, "TBK1 (human)": {"target": "TBK1 (human) (UniProt Q9UHD2)"}, "PKN2 (human)": {"target": "PKN2 (human) (UniProt Q16513)"}, "PRKAA1 or PRKAA2 (rat)": {"system": "PRKAA1 or PRKAA2 (rat)", "conditions": "accession and sequence are those of the human protein"}, "EPHB3 (human)": {"target": "EPHB3 (human) (UniProt P54753)"}, "MAPK8 (human)": {"target": "MAPK8 (human) (UniProt P45983)"}, "MAPK12 (human)": {"target": "MAPK12 (human) (UniProt P53778)"}, "MAP2K1 (human)": {"target": "MAP2K1 (human) (UniProt Q02750)"}, "IGF1R (human)": {"target": "IGF1R (human) (UniProt P08069)", "sequence (P08069 whole entry, looked up)": "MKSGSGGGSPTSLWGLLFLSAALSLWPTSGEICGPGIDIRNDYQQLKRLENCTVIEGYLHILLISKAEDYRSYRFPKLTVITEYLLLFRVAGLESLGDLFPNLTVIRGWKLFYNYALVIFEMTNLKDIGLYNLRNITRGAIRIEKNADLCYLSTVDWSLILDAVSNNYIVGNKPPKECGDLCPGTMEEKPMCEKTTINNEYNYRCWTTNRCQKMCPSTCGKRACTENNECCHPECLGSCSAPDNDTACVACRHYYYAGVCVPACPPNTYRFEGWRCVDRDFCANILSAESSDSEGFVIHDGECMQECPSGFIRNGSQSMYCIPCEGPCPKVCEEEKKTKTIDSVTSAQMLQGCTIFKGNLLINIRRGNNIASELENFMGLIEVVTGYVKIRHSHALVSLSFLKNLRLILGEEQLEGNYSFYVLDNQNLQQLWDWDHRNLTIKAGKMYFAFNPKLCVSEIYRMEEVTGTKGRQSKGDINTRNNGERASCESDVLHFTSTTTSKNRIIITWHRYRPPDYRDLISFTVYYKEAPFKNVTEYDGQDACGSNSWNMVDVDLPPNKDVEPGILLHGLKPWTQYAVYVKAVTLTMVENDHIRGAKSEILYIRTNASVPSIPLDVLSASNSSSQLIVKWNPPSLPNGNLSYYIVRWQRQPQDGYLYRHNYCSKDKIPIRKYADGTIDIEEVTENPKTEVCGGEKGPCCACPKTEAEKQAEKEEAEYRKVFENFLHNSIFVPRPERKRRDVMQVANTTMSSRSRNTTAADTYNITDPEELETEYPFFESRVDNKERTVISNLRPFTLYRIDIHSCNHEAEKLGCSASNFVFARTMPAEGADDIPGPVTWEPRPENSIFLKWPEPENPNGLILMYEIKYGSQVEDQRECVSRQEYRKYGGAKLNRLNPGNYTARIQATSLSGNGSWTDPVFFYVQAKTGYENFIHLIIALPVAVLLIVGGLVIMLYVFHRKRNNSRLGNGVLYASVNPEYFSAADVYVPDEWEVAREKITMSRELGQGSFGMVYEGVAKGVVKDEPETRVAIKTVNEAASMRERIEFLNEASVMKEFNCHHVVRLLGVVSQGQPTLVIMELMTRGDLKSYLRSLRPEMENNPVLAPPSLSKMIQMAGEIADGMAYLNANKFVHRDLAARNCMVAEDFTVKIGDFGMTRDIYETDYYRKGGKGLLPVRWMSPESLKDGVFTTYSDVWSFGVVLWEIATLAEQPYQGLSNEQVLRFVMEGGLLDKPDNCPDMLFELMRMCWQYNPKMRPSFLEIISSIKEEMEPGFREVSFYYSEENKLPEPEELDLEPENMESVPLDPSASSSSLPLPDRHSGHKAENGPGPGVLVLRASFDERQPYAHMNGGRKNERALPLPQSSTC"}, "MST4 (human)": {"target": "MST4 (human) (UniProt Q9P289)"}, "MAPKAPK5 (human)": {"target": "MAPKAPK5 (human) (UniProt Q8IW41)"}, "[1]": {"system": "SGK1 (human), O00141 [S422D]"}, "PRKCA (human)": {"target": "PRKCA (human) (UniProt P17252)"}, "BTK (human)": {"target": "BTK (human) (UniProt Q06187)"}, "PLK1 (human)": {"target": "PLK1 (human) (UniProt P53350)"}}, "note": "pIC50: −log10 of the molar value. “And” between values parts separate entries of the source, which are not always exact repeats. Equal entries are not always repeated.", "data": [{"smiles": "COC(=O)Nc1ccc(-c2nc(N3CCOCC3)c3cnn(C4CCN(C(=O)OC)CC4)c3n2)cc1", "values": [{"measurement": "pIC50", "setting": "PIK3C2A (human)", "result": "< 5.00"}, {"measurement": "pIC50", "setting": "PIK3C3 (human)", "result": "< 5.00"}, {"measurement": "pIC50", "setting": "PIK3C2B (human)", "result": 5.29}, {"measurement": "pIC50", "setting": "PI4KB (human)", "result": "< 5.00"}, {"measurement": "pIC50", "setting": "PI4KA (human)", "result": "< 5.48"}, {"measurement": "per cent of control", "setting": "PDPK1 (human); compound 1.0 µM", "result": "98% and 100%"}, {"measurement": "per cent of control", "setting": "PDPK1 (human); compound 10.0 µM", "result": "80% and 101%"}, {"measurement": "per cent of control", "setting": "CAMKK2 (human); compound 1.0 µM", "result": 102, "unit": "%"}, {"measurement": "per cent of control", "setting": "CAMKK2 (human); compound 10.0 µM", "result": 95, "unit": "%"}, {"measurement": "per cent of control", "setting": "MAPKAPK2 (human); compound 1.0 µM", "result": 98, "unit": "%"}, {"measurement": "per cent of control", "setting": "MAPKAPK2 (human); compound 10.0 µM", "result": 91, "unit": "%"}, {"measurement": "per cent of control", "setting": "MAPK9 (human); compound 1.0 µM", "result": 92, "unit": "%"}, {"measurement": "per cent of control", "setting": "MAPK9 (human); compound 10.0 µM", "result": 89, "unit": "%"}, {"measurement": "per cent of control", "setting": "PIM1 (human); compound 1.0 µM", "result": 117, "unit": "%"}, {"measurement": "per cent of control", "setting": "PIM1 (human); compound 10.0 µM", "result": 103, "unit": "%"}, {"measurement": "per cent of control", "setting": "PRKCZ (human); compound 1.0 µM", "result": 93, "unit": "%"}, {"measurement": "per cent of control", "setting": "PRKCZ (human); compound 10.0 µM", "result": 106, "unit": "%"}, {"measurement": "per cent of control", "setting": "DYRK1A (human); compound 1.0 µM", "result": 111, "unit": "%"}, {"measurement": "per cent of control", "setting": "DYRK1A (human); compound 10.0 µM", "result": 90, "unit": "%"}, {"measurement": "per cent of control", "setting": "AURKB (human); compound 1.0 µM", "result": 91, "unit": "%"}, {"measurement": "per cent of control", "setting": "AURKB (human); compound 10.0 µM", "result": 100, "unit": "%"}, {"measurement": "per cent of control", "setting": "CSK (human); compound 1.0 µM", "result": 113, "unit": "%"}, {"measurement": "per cent of control", "setting": "CSK (human); compound 10.0 µM", "result": 106, "unit": "%"}, {"measurement": "per cent of control", "setting": "RPS6KA5 KD1 KD2 (human); compound 1.0 µM", "result": 83, "unit": "%"}, {"measurement": "per cent of control", "setting": "RPS6KA5 KD1 KD2 (human); compound 10.0 µM", "result": 86, "unit": "%"}, {"measurement": "per cent of control", "setting": "GSK3B (human); compound 1.0 µM", "result": 86, "unit": "%"}, {"measurement": "per cent of control", "setting": "GSK3B (human); compound 10.0 µM", "result": 93, "unit": "%"}, {"measurement": "per cent of control", "setting": "NEK6 (human); compound 1.0 µM", "result": 96, "unit": "%"}, {"measurement": "per cent of control", "setting": "NEK6 (human); compound 10.0 µM", "result": 87, "unit": "%"}, {"measurement": "per cent of control", "setting": "STK3 (human); compound 1.0 µM", "result": 85, "unit": "%"}, {"measurement": "per cent of control", "setting": "STK3 (human); compound 10.0 µM", "result": 96, "unit": "%"}, {"measurement": "per cent of control", "setting": "EPHA2 (human); compound 1.0 µM", "result": 106, "unit": "%"}, {"measurement": "per cent of control", "setting": "EPHA2 (human); compound 10.0 µM", "result": 104, "unit": "%"}, {"measurement": "per cent of control", "setting": "MKNK2 (human); compound 1.0 µM", "result": 115, "unit": "%"}, {"measurement": "per cent of control", "setting": "MKNK2 (human); compound 10.0 µM", "result": 93, "unit": "%"}, {"measurement": "per cent of control", "setting": "TBK1 (human); compound 1.0 µM", "result": 96, "unit": "%"}, {"measurement": "per cent of control", "setting": "TBK1 (human); compound 10.0 µM", "result": 94, "unit": "%"}, {"measurement": "per cent of control", "setting": "PKN2 (human); compound 1.0 µM", "result": 117, "unit": "%"}, {"measurement": "per cent of control", "setting": "PKN2 (human); compound 10.0 µM", "result": 101, "unit": "%"}, {"measurement": "per cent of control", "setting": "PRKAA1 or PRKAA2 (rat); compound 1.0 µM", "result": 78, "unit": "%"}, {"measurement": "per cent of control", "setting": "PRKAA1 or PRKAA2 (rat); compound 10.0 µM", "result": 82, "unit": "%"}, {"measurement": "per cent of control", "setting": "EPHB3 (human); compound 1.0 µM", "result": 100, "unit": "%"}, {"measurement": "per cent of control", "setting": "EPHB3 (human); compound 10.0 µM", "result": 116, "unit": "%"}, {"measurement": "per cent of control", "setting": "MAPK8 (human); compound 1.0 µM", "result": 93, "unit": "%"}, {"measurement": "per cent of control", "setting": "MAPK8 (human); compound 10.0 µM", "result": 91, "unit": "%"}, {"measurement": "per cent of control", "setting": "MAPK12 (human); compound 1.0 µM", "result": 55, "unit": "%"}, {"measurement": "per cent of control", "setting": "MAPK12 (human); compound 10.0 µM", "result": 17, "unit": "%"}, {"measurement": "per cent of control", "setting": "MAP2K1 (human); compound 1.0 µM", "result": 82, "unit": "%"}, {"measurement": "per cent of control", "setting": "MAP2K1 (human); compound 10.0 µM", "result": 79, "unit": "%"}, {"measurement": "per cent of control", "setting": "IGF1R (human); compound 1.0 µM", "result": 108, "unit": "%"}, {"measurement": "per cent of control", "setting": "IGF1R (human); compound 10.0 µM", "result": 101, "unit": "%"}, {"measurement": "per cent of control", "setting": "MST4 (human); compound 1.0 µM", "result": 88, "unit": "%"}, {"measurement": "per cent of control", "setting": "MST4 (human); compound 10.0 µM", "result": 82, "unit": "%"}, {"measurement": "per cent of control", "setting": "MAPKAPK5 (human); compound 1.0 µM", "result": 98, "unit": "%"}, {"measurement": "per cent of control", "setting": "MAPKAPK5 (human); compound 10.0 µM", "result": 74, "unit": "%"}, {"measurement": "per cent of control", "setting": "[1]; compound 1.0 µM", "result": 85, "unit": "%"}, {"measurement": "per cent of control", "setting": "[1]; compound 10.0 µM", "result": 77, "unit": "%"}, {"measurement": "per cent of control", "setting": "PRKCA (human); compound 1.0 µM", "result": 81, "unit": "%"}, {"measurement": "per cent of control", "setting": "PRKCA (human); compound 10.0 µM", "result": 75, "unit": "%"}, {"measurement": "per cent of control", "setting": "BTK (human); compound 1.0 µM", "result": 116, "unit": "%"}, {"measurement": "per cent of control", "setting": "BTK (human); compound 10.0 µM", "result": 99, "unit": "%"}, {"measurement": "per cent of control", "setting": "PLK1 (human); compound 1.0 µM", "result": 105, "unit": "%"}, {"measurement": "per cent of control", "setting": "PLK1 (human); compound 10.0 µM", "result": 88, "unit": "%"}]}]}
